# Experiments:
# Swiss mice = test: Hot plate model, assay for acute pain; format: in vivo; settings: ip, 32.25 μmol/kg, plate 52° C., compared to morphine sulfate at the same dose
# Excerpt: The antinociceptive activity (AA) of the present invention selected compounds (C3, C9, C11, C12, C13, C15 and C17) was investigated in hot plate model [Hot Plate Model LE7406, Scientific Inc.] described by Kuraishi et al. [Kuraishi, Y., Harada, Y., Aratani, S., Satoh, M., Takagi, H. Brain Research 1983.273, 245-2523]. This method is valid to evaluate the analgesic activity of substances acting on the central nervous system. Swiss mice weighing 20-25 g were placed on a metal plate heated up to 52° C. The animals were withdrawn from the hot plate at the time they lead their forepaws toward the mouth to lick, being this an indicative of pain second Le Bars et al. [Le Bars, D., Gozariu, M., Cadden, S. W. Animal models of nociception. Pharmacol. Rev. 2001, 53 (4), 597-652]. In this way, it was analyzed how long the animal, treated or not (control) with the analgesic substance, remained on the plate at 52° C.; the longest residence time of an animal on the plate was 35 seconds. This time limit (or cut off) (35 s) was determined by the average of three measurements of latency control values, obtained for each animal multiplied by three, to prevent any kind of tissue injury on the footpad of animals's paw due to long permanence on the heated surface. The protocol consisted in the intraperitoneal (ip) injection of the selected compounds of the present invention at a dose of 32.25 μmol/kg. The antinociceptive activity was evaluated at intervals of 10 minutes until effect completely disappear and, compared to morphine sulfate ([…]) at the same dose of 32.25 μmoles/kg (12.2 mg/kg). The investigated parameter is the latency of reflex to paw withdrawal in response to thermal stimulus. The results were expressed as percentage of AA, which was calculated according to Equation 1 for each experiment.
# Swiss-type male mice = test: RotaRod performance test, motor coordination; settings: for animal residence time on the rotational cylinder compared to controls: 15 minutes after administration; for Mice residence time on the rotational cylinder: 9 rpm, cut off 180 s, mean ± SEM
# Description: The assessment of motor coordination in mice, by the rotarod performance test, was carried out to detect any possible sedative or muscle relaxant effect caused by the compounds of the present invention, previously tested in acute and neuropathic pain models. This test was carried out according to the method of described by Dunham & Miya and animal motor coordination was evaluated using RotaRod apparatus [Dunham M. S. & Miya. R. T. (1957). J. Amer. Pharmac. Assoc. Sci. Edit. 1957, 46, 208-209].
# The RotaRod apparatus (Model 412 EFF, Insight Equipements, Brazil) is a device that measures motor coordination and thus evaluates balance alterations in mice. The apparatus consists of an acrylic box splited into four compartments with a rotational cylinder among them. The cylinder rotates at constant speed driven by a motor and regulated to the constant speed mode of 5-37 revolutions per minute (rpm). In this study the speed was set up to 9 rpm.
# To remain on the rotational cylinder, the animal needs to move around, so that the motor coordination can be quantified. The four compartments have drop detection system, through the impact, a microprocessor circuit, for timing the permanence of the animal at the compartment, and for counting the number of falls.
# The day before the test, Swiss-type male mice (19-25 g) were placed on the rotational cylinder, set up to the constant speed mode of 9 rpm for adaptation and learning. A group of 10 mice were used for each tested compound, and the total period spent on the rotational cylinder (in seconds) was recorded for a period of 180 seconds (cut off time) and it was accept a maximum of three falls for each animal. Motor coordination was assessed at times 0 (before treatment), 15, 30, 60 and 120 minutes after compounds administration at a dose of 32.25 μmol/kg.
# All compounds were administered intraperitoneally (ip).
# The Student's t-test was also used to compare means between two experimental groups. Differences were considered significant when p<0.05.
# rats subjected to SNL = test: Spinal nerve ligation (SNL) L5 model, thermal hyperalgesia; format: in vivo, rat; settings: for effect on thermal hyperalgesia after treatment interruption: after 7 days of 32.25 μmol/kg ip; for paw withdrawal latency, thermal hyperalgesia: after 7 days of treatment; for reversal of hyperalgesia signs associated with neuropathic pain: ip during 7 days, 32.25 μmol/kg
# Description: This experimental model was proposed by Kim and Chung [Kim, S. H.; Chung, J. M. Pain 1992, 50: 355-363] and consists of ligation of spinal nerves. Male Wistar rats, 180-220 g, were anesthetized with a mixture of ketamine and xylazine (60 mg/kg and 5 mg/kg, respectively) intraperitoneally. After the dorsal region asepsy, an incision was made between L5 and S1. The L6 transverse process was removed for locating the nerves L4 and L5, which were carefully isolated, and tight ligation of the L5 nerve with 6.0 silk thread was made, interrupting flow of the axon of the nerve. After this procedure, para-spinal muscles and skin were sutured, and then a topical antiseptic was applied. False operated animals (sham) were subjected to the same procedure, however the spinal nerve was not ligated.
# This method aims to evaluate the animal behavior in response to hyperalgesic phenomenon resulting from the injury induced by the ligament of spinal nerve (L5). In this regard, paw withdrawal in response to thermal stimulus was used, and the thermal stimulus was induced by the radiant heat of an incandescent lamp bulb. The paw withdrawal test was performed as described for the assessment of thermal hyperalgesia in the sciatic nerve chronic constrictive injury model.
# Differences were considered significant when p<0.05.
# The treatment started on the 7th day after surgery. Compounds were diluted in water or DMSO and administered through intraperitoneal route on daily basis, during 7 days, at a dose of […]. The effectiveness of tested compounds was assessed on days 1, 3, and 7 days after treatment, always before the next administration of the compound. Latencies were also assessed on days 1, 3, and 7 after treatment interruption.
# [1] = T 15 min after ip administration, 32.25 μmol/kg
# [2] = T 30 min after ip administration, 32.25 μmol/kg (diazepam 2 mg/kg)
# [3] = T 60 min after ip administration, 32.25 μmol/kg (diazepam 2 mg/kg)
# [4] = T 120 min after ip administration, 32.25 μmol/kg (diazepam 2 mg/kg)
smiles,measurement,setting,value
"Cl.Cl.Fc1ccc(-c2n[nH]cc2CCN2CCCCC2)cc1.O [C3, 1-{2-[3-(4-fluorophenyl)-1H-pyrazol-4-yl]ethyl}piperidine dihydrochloride monohydrate]","antinociceptive activity (AA), hot plate",Swiss mice,exhibit antinociceptive activity of intensity and kinetics similar to morphine sulfate
same,animal residence time on the rotational cylinder compared to controls,Swiss-type male mice; 32.25 μmol/kg,"equal to the time observed for the negative control, and significantly higher than the time observed for the control amitriptyline hydrochloride"
same,Mice residence time on the rotational cylinder,Swiss-type male mice; [1],180.0 s
same,Mice residence time on the rotational cylinder,Swiss-type male mice; [2],178.2 s
same,Mice residence time on the rotational cylinder,Swiss-type male mice; [3],178.7 s
same,Mice residence time on the rotational cylinder,Swiss-type male mice; [4],180.0 s
same,effect on thermal hyperalgesia after treatment interruption,rats subjected to SNL,still observed up to 1 day after treatment interruption
same,increase in paw withdrawal latency,"rats subjected to SNL; since the first day of treatment, 32.25 μmol/kg ip",statistically significant increase in paw withdrawal latency
"Cl.Cl.Fc1ccc(-c2n[nH]cc2CCN2CCOCC2)cc1.O [C9, 4-{2-[3-(4-fluorophenyl)-1H-pyrazol-4-yl]ethyl}morpholine dihydrochloride monohydrate]","antinociceptive activity (AA), hot plate",Swiss mice,exhibit antinociceptive activity of intensity and kinetics similar to morphine sulfate
same,animal residence time on the rotational cylinder compared to controls,Swiss-type male mice; 32.25 μmol/kg,"equal to the time observed for the negative control, and significantly higher than the time observed for the control amitriptyline hydrochloride"
same,Mice residence time on the rotational cylinder,Swiss-type male mice; [1],180.0 s
same,Mice residence time on the rotational cylinder,Swiss-type male mice; [2],180.0 s
same,Mice residence time on the rotational cylinder,Swiss-type male mice; [3],180.0 s
same,Mice residence time on the rotational cylinder,Swiss-type male mice; [4],175.3 s
same,"paw withdrawal latency, thermal hyperalgesia",rats subjected to SNL; 32.25 μmol/kg ip,statistically significant antinociceptive effect
same,reversal of hyperalgesia signs associated with neuropathic pain,rats subjected to SNL,effective in reverse the hyperalgesia and allodynia signs
"CN1CCN(CCc2c[nH]nc2-c2ccc(F)cc2)CC1.Cl.Cl.Cl.O.O [C11, 1-{2-[3-(4-fluorophenyl)-1H-pyrazol-4-yl]ethyl}-4-methylpiperazine trihydrochloride dihydrate]","antinociceptive activity (AA), hot plate",Swiss mice,exhibit antinociceptive activity of intensity and kinetics similar to morphine sulfate
same,animal residence time on the rotational cylinder compared to controls,Swiss-type male mice; 32.25 μmol/kg,"equal to the time observed for the negative control, and significantly higher than the time observed for the control amitriptyline hydrochloride"
same,Mice residence time on the rotational cylinder,Swiss-type male mice; [1],180.0 s
same,Mice residence time on the rotational cylinder,Swiss-type male mice; [2],177.0 s
same,Mice residence time on the rotational cylinder,Swiss-type male mice; [3],178.5 s
same,Mice residence time on the rotational cylinder,Swiss-type male mice; [4],176.7 s
same,"paw withdrawal latency, thermal hyperalgesia",rats subjected to SNL; 32.25 μmol/kg ip,statistically significant antinociceptive effect
same,reversal of hyperalgesia signs associated with neuropathic pain,rats subjected to SNL,effective in reverse the hyperalgesia and allodynia signs
"Cl.OC1(c2ccc(Cl)cc2)CCN(CCc2conc2-c2ccc(F)cc2)CC1 [C15, 4-(4-chlorophenyl)-1-{2-[3-(4-fluorophenyl)-1,2-oxazol-4-yl]ethyl}piperidin-4-ol hydrochloride]","antinociceptive activity (AA), hot plate",Swiss mice,exhibit antinociceptive activity of intensity and kinetics similar to morphine sulfate
same,animal residence time on the rotational cylinder compared to controls,Swiss-type male mice; 32.25 μmol/kg,"equal to the time observed for the negative control, and significantly higher than the time observed for the control amitriptyline hydrochloride"
same,Mice residence time on the rotational cylinder,Swiss-type male mice; [1],180.0 s
same,Mice residence time on the rotational cylinder,Swiss-type male mice; [2],179.0 s
same,Mice residence time on the rotational cylinder,Swiss-type male mice; [3],179.2 s
same,Mice residence time on the rotational cylinder,Swiss-type male mice; [4],180.0 s
same,effect on thermal hyperalgesia after treatment interruption,rats subjected to SNL,maintained for 1 day after treatment interruption
same,"paw withdrawal latency, thermal hyperalgesia",rats subjected to SNL; 32.25 μmol/kg ip,statistically significant antinociceptive effect
same,reversal of hyperalgesia signs associated with neuropathic pain,rats subjected to SNL,effective in reverse the hyperalgesia and allodynia signs
"CCOC(=O)C1(c2ccccc2)CCN(CCc2conc2-c2ccc(F)cc2)CC1.Cl [C17, Ethyl 1-{2-[3-(4-fluorophenyl)-1,2-oxazol-4-yl]ethyl}-4-phenylpiperidine-4-carboxylate hydrochloride]","antinociceptive activity (AA), hot plate",Swiss mice,exhibit antinociceptive activity of intensity and kinetics similar to morphine sulfate
same,Mice residence time on the rotational cylinder,Swiss-type male mice; [1],127.4 s
same,Mice residence time on the rotational cylinder,Swiss-type male mice; [2],153.3 s
same,Mice residence time on the rotational cylinder,Swiss-type male mice; [3],163.2 s
same,Mice residence time on the rotational cylinder,Swiss-type male mice; [4],175.6 s
same,"paw withdrawal latency, thermal hyperalgesia",rats subjected to SNL; 32.25 μmol/kg ip,statistically significant antinociceptive effect
same,reversal of hyperalgesia signs associated with neuropathic pain,rats subjected to SNL,effective in reverse the hyperalgesia and allodynia signs

# — patent US20150266864A1, “HETEROAROMATIC COMPOUNDS, METHOD FOR PREPARING THE COMPOUNDS, PHARMACEUTICAL COMPOSITIONS, USES AND METHOD FOR TREATING ACUTE AND CHRONIC PAIN” (CRISTÁLIA PRODUTOS QUÍMICOS FARMACÊUTICOS LTDA, priority 2012, published 2015)
